{"source": "patent US8859026B2", "about": "“Method for reducing methoxypyrazines in grapes and grape products” (Brock University, priority 2009, dated 2014)", "key": {"[1]": {"target": "T1, piglet OBP (pIOBP), Genbank AF436848, Uniprot Q8WMH1-1, SEQ ID NO: 3 (codon optimized) / SEQ ID NO: 4 (non-optimized), recombinant (Sus scrofa, UniProt P81245)", "T1 construct": "S. cerevisiae alpha-mating factor secretion signal (pPIC9) (N); made in house; host or cells: Pichia pastoris GS115 (vector pPIC9)", "T1 sequence (P81245 with tags, fused parts or gaps)": "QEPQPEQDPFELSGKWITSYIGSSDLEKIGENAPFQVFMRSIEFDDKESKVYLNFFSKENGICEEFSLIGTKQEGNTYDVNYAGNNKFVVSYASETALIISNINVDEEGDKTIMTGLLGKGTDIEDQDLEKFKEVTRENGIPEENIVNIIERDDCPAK", "experiment": "Competitive displacement of 1-AMA, piglet OBP", "assay_type": "binding, pig (piglet/prepubertal)", "procedure": "(§1) Competitive binding assays were done with 2 uM protein pre equilibrated with five fold 1-AMA concentration (10 uM). Fluorescence decay of the protein/1-AMA complex is expressed as a ratio of initial and final fluorescence against the total competitor concentration: (I−Imin)/(Io−Imin) where Io=fluorescence intensity of the protein/1-AMA complex, Imin=fluorescence intensity at saturation, and I=fluorescence intensity at a given competitor concentration.\n(§2) Fluorescence ligand binding experiments were performed on a Photon Technology International (London, Canada) Quanta Master Model QM2001 fluorometer at room temperature (19-20° C.), using 1 cm light path quartz cuvettes (Hellma). Slit width of 2 nm was used for excitation and emission for assaying a proteins except ratOBP1F, for which excitation and emission slit width of 6 nm was used.\n(§3) The interaction of odorants with AMA complex was examined by monitoring the decrease in fluorescence intensity of protein/1-AMA complex upon the addition of competitor compounds.\n(§4) In competitive binding assays, 1-AMA (10 μM) was equilibrated with protein (2 μM) at pH 7.2 50 mM sodium phosphate buffer and pH 3.0 50 mM citrate phosphate buffer, and titrated with increasing concentrations of odorants (0-100 μM) solubilized in 10% v/v methanol.\n(§5) The affinity of OBPs for odorants was estimated by plotting the decrease of intensity of 1-AMA fluorescence at the emission maximum, (22). Odorant concentrations causing fluorescence decay to half-maximal intensity (IC50 values) were determined from the plot of (I−Imin)/(I0−Imin) against the competitor concentration; I0 is the maximum of fluorescence intensity of the protein/1-AMA complex; I is the fluorescence intensity after addition of an aliquot of competitor, and Imin the fluorescence intensity at saturating concentration of the competitor."}, "[2]": {"target": "T2, rat OBP1F (rat OBP variant 1F), recombinant (Rattus norvegicus, UniProt P08937)", "T2 construct": "made in house; host or cells: Pichia pastoris (vector pPIC9; recombinant strain provided by J.-C; Pernollet, INRA)", "T2 sequence (P08937 16-172)": "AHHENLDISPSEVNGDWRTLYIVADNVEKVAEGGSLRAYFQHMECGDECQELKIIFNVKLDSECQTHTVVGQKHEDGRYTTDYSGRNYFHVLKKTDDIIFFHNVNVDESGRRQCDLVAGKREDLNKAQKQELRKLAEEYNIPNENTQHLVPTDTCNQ", "experiment": "Competitive displacement of 1-AMA, rat OBP-1F", "assay_type": "binding", "settings": "pH 7.2", "procedure": "as §1, §2, §3, §4, §5"}, "[3]": {"target": "pOBP (adult porcine OBP)", "settings": "cited from earlier work"}, "[4]": {"test_system": "pOBP, adult porcine OBP isoform", "settings": "isothermal calorimetry, Burova et al., 1999, cited from earlier work"}, "[5]": {"target": "T3, mouse MUPII (mMUPII), Genbank AJ309921, Uniprot P11589, SEQ ID NO: 5, recombinant (Mus musculus, UniProt P11589)", "T3 construct": "no tag mentioned", "T3 sequence (P11589 19-180)": "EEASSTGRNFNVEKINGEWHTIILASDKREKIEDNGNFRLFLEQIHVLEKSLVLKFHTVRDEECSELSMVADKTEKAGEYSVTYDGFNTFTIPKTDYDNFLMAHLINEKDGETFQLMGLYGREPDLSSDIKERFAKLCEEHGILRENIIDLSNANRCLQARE", "experiment": "Competitive displacement of 1-AMA, mouse MUPII", "assay_type": "binding", "settings": "for IC50: displacement of 1-AMA, 2 uM protein, 10 uM 1-AMA", "procedure": "as §1, §2, §3, §4, §5"}, "[6]": {"target": "rOBP-1F", "settings": "cited from earlier work"}, "[7]": {"target": "mMUPII (mouse major urinary protein isoform II)", "settings": "cited from earlier work"}, "[8]": {"target": "rat OBP", "settings": "Nespoulous et al 2004; read-out: apparent Kd; cited from earlier work"}, "[9]": {"target": "T4, piglet OBP (Sus scrofa, UniProt P81245)", "T4 construct": "made in house; host or cells: Pichia pastoris GS115 (pPIC9, alpha-mating factor secretion signal)", "T4 sequence (P81245 with tags, fused parts or gaps)": "T1 sequence (P81245 with tags, fused parts or gaps)", "experiment": "Competitive fluorescent binding assay: displacement of 1-AMA from piglet OBP by odorants IPMP and IBMP", "design": "species or system porcine", "settings": "for Kd: calculated from IC50, read-out: Kd for piglet OBP", "procedure": "as §3, §4, §5"}, "[10]": {"target": "T1, piglet OBP (pIOBP), Genbank AF436848, Uniprot Q8WMH1-1, SEQ ID NO: 3 (codon optimized) / SEQ ID NO: 4 (non-optimized), recombinant", "experiment": "1-AMA fluorescence binding assay, piglet OBP", "design": "species or system pig (piglet/prepubertal)", "excerpt": "(§6) The excitation wavelength of 290 nm was used and fluorescence emission intensities were monitored at 504 nm, 483 nm and 486 nm for rat OBP1F, piglet OBP and mouse MUPII respectively.\n(§7) cDNA sequence encoding mature piglet OBP (Genbank AF436848) and the mouse MUPII (Genbank AJ309921) were designed for heterologous expression in the methylotrophic yeast P. pastoris as follows: at the 5′ end of coding sequences, native signal peptide sequences were removed and replaced with XhoI (CTC GAG ([SEQ ID NO: 1]) and prepro sequence of the S. cerevisiae α-mating factor (AAA AGA [SEQ ID NO:2]). A stop codon and an EcoRI restriction site were added at the 3′ terminus. The sequences were then optimized for G+C content and preferred codon usage in P. pastoris. Modified coding sequences were synthesized and cloned in frame with the α-mating factor secretion signal into the pPIC9 expression vector between the XhoI and EcoRI sites (GenScript Corp., Piscataway, N.J.). Further information about the protein sequences is provided below:\nUniprot ID Q8WMH1-1, Genbank AF436848. *chain comprises 158 residues *differs from adult isoform/variant by an additional lysine residue at the C terminal end. Tissue source for cloning and binding: vomeronasal organ, but the isomer is also found in both vomeronasal and nasal mucosa.\nas §2\n(§8) Binding curves with 1-AMA were obtained by titrating protein (2 μM) in 50 mM sodium phosphate, pH 7.2 with ligand (0-50 uM, prepared gravimetrically as a 1 mM stock solution in 10% v/v methanol). To examine dependence of binding on pH, fluorescence spectra was measured in 50 mM citrate phosphate solutions at pH 3.0, 4.0 and 5.0. Fluorescence of 1-AMA was excited at 290 nm and emission was scanned from 450 to 550 nm.\n(§9) Dissociation constants were calculated from a plot of fluorescence intensity against total ligand concentration fitted with non linear regression using Prism 3.02 (GraphPad Software Inc., La Jolla, Calif.)."}, "[11]": {"target": "T2, rat OBP1F (rat OBP variant 1F), recombinant", "experiment": "1-AMA fluorescence binding assay, rat OBP-1F", "procedure": "as §6, §2, §8, §9"}, "[12]": {"target": "rat OBP-1F", "settings": "1-AMA; Briand et al. 2000 (21); cited from earlier work"}, "[13]": {"target": "T3, mouse MUPII (mMUPII), Genbank AJ309921, Uniprot P11589, SEQ ID NO: 5, recombinant", "experiment": "1-AMA fluorescence binding assay, mouse MUPII", "excerpt": "as §6, §7\n3. mouse MUPII (MUPIIa Genbank AJ309921, MUP BL1 gene, Uniprot ID P11589)\nas §2, §8, §9"}, "[14]": {"target": "adult porcine OBP isoform", "settings": "1-AMA; Paolini et al. 1999 (26), Ramoni et al. 2007 (27); cited from earlier work"}}, "note": "Like-named read-outs stand apart in the source and are kept apart here.", "data": [{"smiles": "COc1nccnc1CC(C)C", "note": "[IBMP, 2-isobutyl-3-methoxypyrazine]", "values": [{"measurement": "Kd", "setting": "[1]", "result": 1000, "unit": "nM"}, {"measurement": "displacement of fluorescence", "setting": "[1]; pH 3.0", "result": "complete displacement"}, {"measurement": "displacement of 1-AMA fluorescence", "setting": "[1]; pH 7.2", "result": "complete displacement"}, {"measurement": "Kd", "setting": "[2]; calculated from IC50", "result": 43, "unit": "nM"}, {"measurement": "IC50", "setting": "[2]; displacement of 1-AMA, 2 uM protein, 10 uM 1-AMA", "result": 250, "unit": "nM"}, {"measurement": "binding to rOBP-1F more strongly than to mMUPII", "setting": "[2]", "result": "~20", "unit": "fold"}, {"measurement": "binding to rOBP-1F more strongly than to pIOBP", "setting": "[2]", "result": "about 10 fold"}, {"measurement": "displacement of 1-AMA fluorescence", "setting": "[2]", "result": "complete displacement"}, {"measurement": "Kd", "setting": "[3]", "result": "500 to 900", "unit": "nM"}, {"measurement": "molar binding stoichiometry n", "setting": "[4]; pH 3.5", "result": 0.417}, {"measurement": "molar binding stoichiometry n", "setting": "[4]; pH 4.1", "result": 1.080}, {"measurement": "affinity to IBMP", "setting": "[4]; pH 6.6, pH 4.1 and pH 3.5", "result": "remained relatively unchanged"}, {"measurement": "molar binding stoichiometry n", "setting": "[4]; pH 6.6", "result": 1.220}, {"measurement": "Kd", "setting": "[5]; calculated from IC50, pH 3.0, read-out: Kd", "result": 1080, "unit": "nM"}, {"measurement": "Kd", "setting": "[5]; calculated from IC50, pH 7.2, read-out: Kd", "result": 480, "unit": "nM"}, {"measurement": "IC50", "setting": "[5]; pH 3.0", "result": 3410, "unit": "nM"}, {"measurement": "IC50", "setting": "[5]; pH 7.2", "result": 8070, "unit": "nM"}, {"measurement": "displacement of fluorescence", "setting": "[5]; pH 3.0", "result": "complete displacement"}, {"measurement": "Kd", "setting": "[5]; pH 3.0, read-out: apparent Kd", "result": 1000, "unit": "nM"}, {"measurement": "displacement of 1-AMA fluorescence", "setting": "[5]; pH 7.2", "result": "complete displacement"}, {"measurement": "Kd", "setting": "[5]; pH 7.2, read-out: apparent Kd", "result": 500, "unit": "nM"}, {"measurement": "Kd", "setting": "[6]", "result": 69, "unit": "nM"}, {"measurement": "Kd", "setting": "[7]", "result": 940, "unit": "nM"}, {"measurement": "Kd", "setting": "[8]", "result": 69, "unit": "nM"}, {"measurement": "IC50", "setting": "[9]; pH 3.0", "result": 3650, "unit": "nM"}, {"measurement": "affinity for pIOBP, more strongly than IPMP", "setting": "[9]; pH 3.0", "result": 1.6, "unit": "fold"}, {"measurement": "Kd", "setting": "[9]; pH 3.0", "result": 1470, "unit": "nM"}, {"measurement": "IC50", "setting": "[9]; pH 7.2", "result": 6860, "unit": "nM"}, {"measurement": "affinity for pIOBP, more strongly than IPMP", "setting": "[9]; pH 7.2", "result": "about 5 fold"}, {"measurement": "Kd", "setting": "[9]; pH 7.2", "result": 940, "unit": "nM"}]}, {"smiles": "Nc1cccc2cc3ccccc3cc12", "note": "[1-AMA, 1-aminoanthracene]", "values": [{"measurement": "Kd", "setting": "[10]; pH 3.0", "result": 4300, "unit": "nM"}, {"measurement": "decrease in binding affinity compared with pH 7.2", "setting": "[10]; pH 3.0", "result": 3.4, "unit": "fold"}, {"measurement": "maximal binding capacity compared with pH 7.2", "setting": "[10]; pH 3.0", "result": "approximately halved"}, {"measurement": "Kd", "setting": "[10]; pH 4.0", "result": 2660, "unit": "nM"}, {"measurement": "decrease in binding affinity compared with pH 7.2", "setting": "[10]; pH 4.0", "result": 2, "unit": "fold"}, {"measurement": "Kd", "setting": "[10]; pH 5.0", "result": 1450, "unit": "nM"}, {"measurement": "Kd", "setting": "[10]; pH 7.2", "result": 1260, "unit": "nM"}, {"measurement": "saturable binding", "setting": "[11]; pH 3.0", "result": "saturable binding curve was not detected"}, {"measurement": "Kd", "setting": "[11]; pH 5.0", "result": 1700, "unit": "nM"}, {"measurement": "Kd", "setting": "[11]; pH 7.2", "result": 1640, "unit": "nM"}, {"measurement": "Kd", "setting": "[12]", "result": 600, "unit": "nM"}, {"measurement": "Kd", "setting": "[13]; pH 3.0", "result": 3480, "unit": "nM"}, {"measurement": "Kd", "setting": "[13]; pH 4.0", "result": 1970, "unit": "nM"}, {"measurement": "Kd", "setting": "[13]; pH 5.0", "result": 1850, "unit": "nM"}, {"measurement": "Kd", "setting": "[13]; pH 7.2", "result": 490, "unit": "nM"}, {"measurement": "binding capacity compared with pH 7.2", "setting": "[13]; pH 3.0", "result": "less than halved"}, {"measurement": "decrease in binding affinity compared with pH 7.2", "setting": "[13]; pH 3.0", "result": 7, "unit": "fold"}, {"measurement": "decrease in binding affinity compared with pH 7.2", "setting": "[13]; pH 4.0", "result": "about 4 fold"}, {"measurement": "decrease in binding affinity compared with pH 7.2", "setting": "[13]; pH 5.0", "result": "about 4 fold"}, {"measurement": "Kd", "setting": "[14]", "result": "1200 to 1300", "unit": "nM"}]}]}
